Results as given in patent publication US20220401564A1 (DANA-FARBER CANCER INSTITUTE, INC., priority 2019, published 2022).

Tests used:
HDAC3 = HDAC3 (Homo sapiens, UniProt O15379); assay: HDAC enzymatic assay (Reaction Biology), fluorogenic substrate; format: biochemical; parameters: purchased Reaction Biology
Protocol: (§1) Compounds 2 and 9 were tested in an enzymatic assay from Reaction Biology® against HDAC isoforms.
(§2) Base Reaction buffer: 50 mM Tris-HCl, pH8.0, 137 mM NaCl, 2.7 mM KCl, and 1 mM MgCl2. Add fresh: 1 mg/ml BSA, 1% DMSO
(§3) Fluorogenic HDAC General Substrate (HDAC1, HDAC2, HDAC3, HDAC6, HDAC10, and HDAC11): 50 μM, Arg-His-Lys-Lys(Ac)-AMC
(§4) 1. Delivered 2X enzyme in wells of reaction plate except in the control wells and added buffer to control wells. 2. Delivered compounds in 100% DMSO into the enzyme mixture by Acoustic technology (Echo550; nanoliter range). Spin down and pre-incubation. 3. Delivered 2X Substrate Mixture (Fluorogenic HDAC Substrate and co-factor if applicable) in all reaction wells to initiate the reaction. Spin and shake. 4. Incubated for 30 min for Class 2A, 1 h for HDAC1, 2, 3, and 6, and 2 h for the rest of HDAC isoforms and SIRTs at 30° C. with seal.
(§5) 5. Added Developer with Trichostatin A (or Nicotinamide for SIRTs) to stop the reaction and to generate fluorescent color. 6. The fluorescence that was generated was detected with excitation (Ex) at […] and emission (Em) at 460 nM by the EnVision Multilabel Plate Reader (PerkinElmer®, Santa Clara, Calif., USA).
(§6) IC50 values were derived from a 10-dose response curve. As shown in Tables 1-2, the addition of a linker and CRBN targeting group altered the isoform selectivity of the SAHA-based degrader compounds.

HDAC6 = target: T1, HDAC6 (Homo sapiens, UniProt Q9UBN7); assay: as above; format: biochemical; parameters: purchased Reaction Biology
T1 sequence (Q9UBN7 1-1215): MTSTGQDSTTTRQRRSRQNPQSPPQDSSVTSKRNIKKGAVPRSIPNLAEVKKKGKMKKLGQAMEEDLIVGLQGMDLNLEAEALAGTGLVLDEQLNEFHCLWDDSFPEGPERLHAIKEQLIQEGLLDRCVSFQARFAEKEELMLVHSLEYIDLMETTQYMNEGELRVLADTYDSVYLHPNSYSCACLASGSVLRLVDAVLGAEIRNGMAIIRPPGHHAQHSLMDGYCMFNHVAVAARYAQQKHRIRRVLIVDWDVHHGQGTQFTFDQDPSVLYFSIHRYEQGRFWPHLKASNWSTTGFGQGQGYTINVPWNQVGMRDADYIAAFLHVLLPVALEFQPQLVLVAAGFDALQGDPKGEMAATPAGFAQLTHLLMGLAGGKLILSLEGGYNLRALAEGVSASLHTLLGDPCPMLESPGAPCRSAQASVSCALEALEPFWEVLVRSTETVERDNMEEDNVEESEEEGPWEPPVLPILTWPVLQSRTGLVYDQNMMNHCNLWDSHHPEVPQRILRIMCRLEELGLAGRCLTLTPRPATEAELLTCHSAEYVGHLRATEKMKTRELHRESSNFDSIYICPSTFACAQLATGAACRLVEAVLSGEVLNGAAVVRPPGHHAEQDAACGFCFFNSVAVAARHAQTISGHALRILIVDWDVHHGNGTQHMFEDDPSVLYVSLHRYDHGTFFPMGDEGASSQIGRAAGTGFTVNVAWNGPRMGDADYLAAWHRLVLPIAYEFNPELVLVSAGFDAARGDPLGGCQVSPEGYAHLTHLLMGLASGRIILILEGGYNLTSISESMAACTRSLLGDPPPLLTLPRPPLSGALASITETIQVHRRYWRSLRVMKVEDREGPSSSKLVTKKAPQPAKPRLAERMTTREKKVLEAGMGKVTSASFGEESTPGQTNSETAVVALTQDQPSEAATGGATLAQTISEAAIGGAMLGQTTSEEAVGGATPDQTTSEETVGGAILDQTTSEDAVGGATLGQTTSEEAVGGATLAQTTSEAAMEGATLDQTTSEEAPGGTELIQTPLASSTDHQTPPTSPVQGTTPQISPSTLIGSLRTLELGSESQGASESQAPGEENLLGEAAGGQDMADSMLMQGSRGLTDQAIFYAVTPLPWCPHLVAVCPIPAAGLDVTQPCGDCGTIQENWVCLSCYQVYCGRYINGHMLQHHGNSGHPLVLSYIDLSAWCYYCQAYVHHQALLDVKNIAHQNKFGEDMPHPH
Protocol: as §1, §2, §3, §4, §5, §6

Sequence of HDAC3 (O15379 whole entry, canonical isoform): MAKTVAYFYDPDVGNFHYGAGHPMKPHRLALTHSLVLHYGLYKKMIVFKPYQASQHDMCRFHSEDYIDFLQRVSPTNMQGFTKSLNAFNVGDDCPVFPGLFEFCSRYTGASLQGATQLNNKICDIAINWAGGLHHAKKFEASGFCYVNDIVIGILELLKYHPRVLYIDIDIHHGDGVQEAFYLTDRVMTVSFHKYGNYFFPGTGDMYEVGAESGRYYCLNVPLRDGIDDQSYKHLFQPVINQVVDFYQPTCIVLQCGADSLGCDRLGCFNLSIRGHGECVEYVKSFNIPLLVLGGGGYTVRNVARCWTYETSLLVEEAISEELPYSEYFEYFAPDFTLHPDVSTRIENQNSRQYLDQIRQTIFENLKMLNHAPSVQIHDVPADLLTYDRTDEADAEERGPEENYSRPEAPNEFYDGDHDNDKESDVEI
Sequence of HDAC3 (Q9Y618 395-489 partner limits assumed): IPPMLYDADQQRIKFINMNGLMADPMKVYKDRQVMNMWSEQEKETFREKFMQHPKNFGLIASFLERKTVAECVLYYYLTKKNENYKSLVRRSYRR

Cc1ncsc1-c1ccc([C@H](C)NC(=O)[C@@H]2C[C@@H](O)CN2C(=O)[C@@H](NC(=O)CCOCCOCCN(CCc2c[nH]c3ccccc23)Cc2ccc(/C=C/C(=O)NO)cc2)C(C)(C)C)cc1 [Compound 2, (2S,4R)-1-((S)-14-(tert-butyl)-3-(4-((E)-3-(hydroxyamino)-3-oxoprop-1-en-1-yl)benzyl)-1-(1H-indol-3-yl)-12-oxo-6,9-dioxa-3,13-diazapentadecan-15-oyl)-4-hydroxy-N—((S)-1-(4-(4-methylthiazol-5-yl)phenyl)ethyl)pyrrolidine-2-carboxamide]
inhibition of HDAC3 deacetylase activity in vitro (in words) (HDAC3): Moderate inhibition
IC50 (HDAC3; 10-dose response curve, read-out: Compound IC50 (M), HDAC3): 5.77e-07 M
inhibition of HDAC6 activity in vitro (in words) (HDAC6): potently inhibited
IC50 (HDAC6; 10-dose response curve, read-out: Compound IC50 (M), HDAC6): 7.85e-08 M
